Active and inactive are the calls of the source.
Assays:
Caspase-6 = biological target: T1, Caspase-6 (Homo sapiens, UniProt P55212); experiment: inhibition of CASP6 peptide cleavage – biochemical, VEID-R110 fluorescence, cherry-pick, dose response (AID 720632)
T1 sequence (P55212 whole entry): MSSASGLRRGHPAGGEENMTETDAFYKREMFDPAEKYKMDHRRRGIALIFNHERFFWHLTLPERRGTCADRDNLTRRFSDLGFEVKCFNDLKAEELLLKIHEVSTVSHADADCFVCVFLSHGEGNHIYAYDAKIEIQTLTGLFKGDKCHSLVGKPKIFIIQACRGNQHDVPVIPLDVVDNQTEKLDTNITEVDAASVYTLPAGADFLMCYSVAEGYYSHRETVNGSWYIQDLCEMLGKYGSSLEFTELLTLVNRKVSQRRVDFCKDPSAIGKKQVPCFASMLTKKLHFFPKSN

SUMO-activating enzyme [1] = biological target: T2, SUMO-activating enzyme (Homo sapiens, UniProt Q9UBT2); experiment: blockers of UBC9-mediated SUMO conjugation – biochemical, AlphaScreen, SUMOylation inhibitor project, confirmation (AID 2018); format: functional
T2 sequence (Q9UBE0 whole entry): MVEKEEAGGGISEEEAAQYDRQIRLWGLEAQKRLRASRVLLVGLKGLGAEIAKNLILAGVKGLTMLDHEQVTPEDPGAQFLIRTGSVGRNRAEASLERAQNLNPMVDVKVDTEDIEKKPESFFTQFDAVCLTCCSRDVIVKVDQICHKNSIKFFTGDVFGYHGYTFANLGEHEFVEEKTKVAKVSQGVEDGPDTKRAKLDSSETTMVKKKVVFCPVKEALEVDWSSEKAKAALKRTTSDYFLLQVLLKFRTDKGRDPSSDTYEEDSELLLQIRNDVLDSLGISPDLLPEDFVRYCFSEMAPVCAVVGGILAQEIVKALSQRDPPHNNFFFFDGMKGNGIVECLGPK
T2 sequence (Q9UBT2 whole entry): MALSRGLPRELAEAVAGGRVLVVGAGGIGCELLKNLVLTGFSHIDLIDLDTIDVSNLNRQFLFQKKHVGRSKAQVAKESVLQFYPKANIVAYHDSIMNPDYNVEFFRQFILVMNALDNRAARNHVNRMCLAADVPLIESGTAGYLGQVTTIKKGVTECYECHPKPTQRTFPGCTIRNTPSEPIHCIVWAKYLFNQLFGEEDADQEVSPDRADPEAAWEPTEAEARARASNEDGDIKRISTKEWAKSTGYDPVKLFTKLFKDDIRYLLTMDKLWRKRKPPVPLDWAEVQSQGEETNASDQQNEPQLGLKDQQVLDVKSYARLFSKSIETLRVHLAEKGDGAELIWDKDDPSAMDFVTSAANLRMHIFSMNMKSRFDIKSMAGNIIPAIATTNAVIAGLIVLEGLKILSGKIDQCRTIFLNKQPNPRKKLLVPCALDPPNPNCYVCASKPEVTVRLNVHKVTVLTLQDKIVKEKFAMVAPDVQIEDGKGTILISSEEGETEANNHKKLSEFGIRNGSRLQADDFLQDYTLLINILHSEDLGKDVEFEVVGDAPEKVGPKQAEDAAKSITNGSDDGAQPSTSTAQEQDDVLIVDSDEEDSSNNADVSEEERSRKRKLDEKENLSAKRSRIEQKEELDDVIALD

SUMO-activating enzyme [2] = biological target: T2, SUMO-activating enzyme; experiment: blockers of SAE1/SAE2–UBC9 SUMO transfer – biochemical, HTRF, uHTS, primary screen (AID 2006); format: protein-complex assay
[3] = biological target: Serine/threonine-protein phosphatase (Homo sapiens, UniProt Q9BPW0); experiment: inhibition of protein phosphatase 5 activity – biochemical, fluorescence, dose response (AID 2395)
[4] = biological target: Ribosomal protein S6 kinase alpha-3 (Homo sapiens, UniProt P51812); format: functional;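 note: measured within a kinome-wide profiling panel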
[5] = biological target: 5'-AMP-activated protein kinase catalytic subunit alpha-1 (Homo sapiens, UniProt Q13131); format: functional
Sequence of 5'-AMP-activated protein kinase catalytic subunit alpha-1 (Q13131 whole entry): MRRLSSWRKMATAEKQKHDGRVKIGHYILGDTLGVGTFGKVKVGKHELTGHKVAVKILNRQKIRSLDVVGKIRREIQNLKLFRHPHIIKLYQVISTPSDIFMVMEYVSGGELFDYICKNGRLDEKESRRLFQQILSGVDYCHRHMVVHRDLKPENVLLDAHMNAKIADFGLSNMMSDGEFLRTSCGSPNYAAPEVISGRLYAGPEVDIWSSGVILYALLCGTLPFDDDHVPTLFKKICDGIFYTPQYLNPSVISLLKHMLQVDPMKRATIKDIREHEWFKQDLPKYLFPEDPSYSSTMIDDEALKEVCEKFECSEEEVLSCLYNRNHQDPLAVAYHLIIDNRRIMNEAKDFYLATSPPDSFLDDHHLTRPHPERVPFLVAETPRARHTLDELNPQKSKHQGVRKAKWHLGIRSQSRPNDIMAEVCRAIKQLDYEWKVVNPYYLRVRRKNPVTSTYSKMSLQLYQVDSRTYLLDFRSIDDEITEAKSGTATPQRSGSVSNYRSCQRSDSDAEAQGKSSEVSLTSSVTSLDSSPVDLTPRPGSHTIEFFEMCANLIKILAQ

[6] = biological target: Calcium/calmodulin-dependent protein kinase type II subunit gamma (Homo sapiens, UniProt Q13555); format: functional
[7] = biological target: Tyrosine-protein kinase receptor TYRO3 (Homo sapiens, UniProt Q06418); format: functional;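 note: TYRO3 value obtained as one member of a kinome-wide profiling panel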
[8] = biological target: Death-associated protein kinase 3 (Homo sapiens, UniProt O43293); format: functional;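 note: measured as one member of a kinome-wide profiling panel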
Activin receptor type-1 = Activin receptor type-1 (Homo sapiens, UniProt Q04771); experiment: Navigating the Kinome. Panel member name: ACVR1; format: functional
SRSF protein kinase 1 = SRSF protein kinase 1 (Homo sapiens, UniProt Q96SB4); format: functional;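 note: measured as one member of a kinome-wide kinase profiling panel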
Sequence of SRSF protein kinase 1 (Q96SB4 whole entry): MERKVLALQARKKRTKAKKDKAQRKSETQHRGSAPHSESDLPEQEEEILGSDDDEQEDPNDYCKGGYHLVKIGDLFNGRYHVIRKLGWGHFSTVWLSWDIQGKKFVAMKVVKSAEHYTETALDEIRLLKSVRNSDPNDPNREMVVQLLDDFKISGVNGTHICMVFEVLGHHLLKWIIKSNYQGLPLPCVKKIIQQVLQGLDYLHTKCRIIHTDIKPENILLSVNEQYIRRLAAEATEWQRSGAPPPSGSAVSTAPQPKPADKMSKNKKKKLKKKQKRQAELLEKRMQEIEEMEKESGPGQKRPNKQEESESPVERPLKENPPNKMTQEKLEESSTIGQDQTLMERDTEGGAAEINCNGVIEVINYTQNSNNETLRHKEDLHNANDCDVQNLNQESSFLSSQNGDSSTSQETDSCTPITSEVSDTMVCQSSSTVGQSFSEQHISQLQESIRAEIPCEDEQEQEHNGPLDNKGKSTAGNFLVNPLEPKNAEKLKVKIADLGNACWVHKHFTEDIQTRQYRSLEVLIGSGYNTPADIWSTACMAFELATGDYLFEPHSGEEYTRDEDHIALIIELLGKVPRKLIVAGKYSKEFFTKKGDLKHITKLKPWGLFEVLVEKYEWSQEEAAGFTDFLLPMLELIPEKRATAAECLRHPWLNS

Aurora kinase A = Aurora kinase A (Homo sapiens, UniProt O14965); format: functional;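 note: value from the Navigating the Kinome kinase panel profiling, panel entry STK6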
Sequence of Aurora kinase A (O14965 whole entry): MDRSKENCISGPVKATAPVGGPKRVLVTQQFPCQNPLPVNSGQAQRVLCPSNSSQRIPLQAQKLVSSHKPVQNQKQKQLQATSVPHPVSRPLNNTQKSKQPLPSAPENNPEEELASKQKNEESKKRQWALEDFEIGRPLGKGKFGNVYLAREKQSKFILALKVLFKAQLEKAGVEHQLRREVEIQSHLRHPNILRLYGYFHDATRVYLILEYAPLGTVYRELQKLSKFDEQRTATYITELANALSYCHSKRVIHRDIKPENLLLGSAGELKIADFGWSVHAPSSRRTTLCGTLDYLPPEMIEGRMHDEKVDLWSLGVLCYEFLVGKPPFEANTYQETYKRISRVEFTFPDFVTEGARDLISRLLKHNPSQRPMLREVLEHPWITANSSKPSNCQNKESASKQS

[9] = biological target: MAP kinase-activated protein kinase 2 (Homo sapiens, UniProt P49137); format: functional;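 note: measured as one member of a kinome-wide kinase panel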
Sequence of MAP kinase-activated protein kinase 2 (P49137 whole entry): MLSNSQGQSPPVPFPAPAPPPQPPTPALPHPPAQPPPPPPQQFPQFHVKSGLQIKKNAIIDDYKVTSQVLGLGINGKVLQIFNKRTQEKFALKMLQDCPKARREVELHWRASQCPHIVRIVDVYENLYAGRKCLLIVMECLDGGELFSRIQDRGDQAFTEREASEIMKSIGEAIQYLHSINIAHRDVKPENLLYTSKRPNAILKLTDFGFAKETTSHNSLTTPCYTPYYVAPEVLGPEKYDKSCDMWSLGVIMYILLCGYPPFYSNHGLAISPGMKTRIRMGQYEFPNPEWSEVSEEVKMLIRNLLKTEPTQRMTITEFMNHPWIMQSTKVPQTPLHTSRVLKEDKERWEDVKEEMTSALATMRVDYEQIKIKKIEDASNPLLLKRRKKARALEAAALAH

[10] = biological target: Calcium/calmodulin-dependent protein kinase type II subunit delta (Homo sapiens, UniProt Q13557); format: functional
[11] = biological target: Casein kinase I isoform alpha (Homo sapiens, UniProt P48729); format: functional
[12] = biological target: Tyrosine-protein kinase ITK/TSK (Homo sapiens, UniProt Q08881); format: functional;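 note: affinity for ITK measured as one member of a broad kinase panel profiling binding across the kinome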
[13] = biological target: Serine/threonine-protein kinase TAO1 (Homo sapiens, UniProt Q7L7X3); format: functional
[14] = biological target: Mitogen-activated protein kinase 13 (Homo sapiens, UniProt O15264); format: functional
[15] = biological target: Non-receptor tyrosine-protein kinase TYK2 (Homo sapiens, UniProt P29597); format: functional
[16] = biological target: Proto-oncogene tyrosine-protein kinase Src (Homo sapiens, UniProt P12931); format: functional;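 note: SRC entry within a kinome-wide kinase profiling panel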
Sequence of Proto-oncogene tyrosine-protein kinase Src (P12931 2-536 limits assumed): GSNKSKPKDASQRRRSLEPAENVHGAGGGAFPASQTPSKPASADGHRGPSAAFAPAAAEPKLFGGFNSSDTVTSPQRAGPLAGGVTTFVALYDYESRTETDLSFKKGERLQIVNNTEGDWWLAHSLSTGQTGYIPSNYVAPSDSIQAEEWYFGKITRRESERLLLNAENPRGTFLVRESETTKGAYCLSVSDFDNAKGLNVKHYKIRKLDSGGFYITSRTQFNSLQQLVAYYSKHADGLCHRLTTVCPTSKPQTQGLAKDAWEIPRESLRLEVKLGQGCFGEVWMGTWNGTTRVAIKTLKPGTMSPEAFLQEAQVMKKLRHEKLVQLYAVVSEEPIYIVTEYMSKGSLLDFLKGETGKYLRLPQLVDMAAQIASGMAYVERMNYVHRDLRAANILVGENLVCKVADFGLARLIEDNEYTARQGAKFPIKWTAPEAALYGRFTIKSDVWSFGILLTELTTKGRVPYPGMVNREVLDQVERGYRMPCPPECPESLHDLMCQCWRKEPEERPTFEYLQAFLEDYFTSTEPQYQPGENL

[17] = biological target: Tyrosine-protein kinase Srms (Homo sapiens, UniProt Q9H3Y6); format: functional;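 note: SRMS measured as one member of a kinome-wide kinase profiling panel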
Ephrin type-A receptor 2 = Ephrin type-A receptor 2 (Homo sapiens, UniProt P29317); format: functional;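 note: EPHA2 tested as one member of a kinome-wide kinase panel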
[18] = biological target: Mitogen-activated protein kinase 1 (Homo sapiens, UniProt P28482); format: functional
Misshapen-like kinase 1 = Misshapen-like kinase 1 (Homo sapiens, UniProt Q8N4C8); format: functional;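 note: kinome panel screen with MINK as the panel member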
[19] = biological target: Dual specificity tyrosine-phosphorylation-regulated kinase 4 (Homo sapiens, UniProt Q9NR20); format: functional
[20] = biological target: Leucine-rich repeat serine/threonine-protein kinase 2 (Homo sapiens, UniProt Q5S007); format: functional;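 note: value from a broad kinome-wide panel profiling study in which LRRK2 was one of the kinases tested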
Aurora kinase B = Aurora kinase B (Homo sapiens, UniProt Q96GD4); format: functional
[21] = biological target: Interleukin-1 receptor-associated kinase 4 (Homo sapiens, UniProt Q9NWZ3); format: functional
[22] = biological target: Rho-associated protein kinase 1 (Homo sapiens, UniProt Q13464); format: functional;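 note: measured within a broad kinome-wide panel profiling many kinases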
Sequence of Rho-associated protein kinase 1 (Q13464 whole entry): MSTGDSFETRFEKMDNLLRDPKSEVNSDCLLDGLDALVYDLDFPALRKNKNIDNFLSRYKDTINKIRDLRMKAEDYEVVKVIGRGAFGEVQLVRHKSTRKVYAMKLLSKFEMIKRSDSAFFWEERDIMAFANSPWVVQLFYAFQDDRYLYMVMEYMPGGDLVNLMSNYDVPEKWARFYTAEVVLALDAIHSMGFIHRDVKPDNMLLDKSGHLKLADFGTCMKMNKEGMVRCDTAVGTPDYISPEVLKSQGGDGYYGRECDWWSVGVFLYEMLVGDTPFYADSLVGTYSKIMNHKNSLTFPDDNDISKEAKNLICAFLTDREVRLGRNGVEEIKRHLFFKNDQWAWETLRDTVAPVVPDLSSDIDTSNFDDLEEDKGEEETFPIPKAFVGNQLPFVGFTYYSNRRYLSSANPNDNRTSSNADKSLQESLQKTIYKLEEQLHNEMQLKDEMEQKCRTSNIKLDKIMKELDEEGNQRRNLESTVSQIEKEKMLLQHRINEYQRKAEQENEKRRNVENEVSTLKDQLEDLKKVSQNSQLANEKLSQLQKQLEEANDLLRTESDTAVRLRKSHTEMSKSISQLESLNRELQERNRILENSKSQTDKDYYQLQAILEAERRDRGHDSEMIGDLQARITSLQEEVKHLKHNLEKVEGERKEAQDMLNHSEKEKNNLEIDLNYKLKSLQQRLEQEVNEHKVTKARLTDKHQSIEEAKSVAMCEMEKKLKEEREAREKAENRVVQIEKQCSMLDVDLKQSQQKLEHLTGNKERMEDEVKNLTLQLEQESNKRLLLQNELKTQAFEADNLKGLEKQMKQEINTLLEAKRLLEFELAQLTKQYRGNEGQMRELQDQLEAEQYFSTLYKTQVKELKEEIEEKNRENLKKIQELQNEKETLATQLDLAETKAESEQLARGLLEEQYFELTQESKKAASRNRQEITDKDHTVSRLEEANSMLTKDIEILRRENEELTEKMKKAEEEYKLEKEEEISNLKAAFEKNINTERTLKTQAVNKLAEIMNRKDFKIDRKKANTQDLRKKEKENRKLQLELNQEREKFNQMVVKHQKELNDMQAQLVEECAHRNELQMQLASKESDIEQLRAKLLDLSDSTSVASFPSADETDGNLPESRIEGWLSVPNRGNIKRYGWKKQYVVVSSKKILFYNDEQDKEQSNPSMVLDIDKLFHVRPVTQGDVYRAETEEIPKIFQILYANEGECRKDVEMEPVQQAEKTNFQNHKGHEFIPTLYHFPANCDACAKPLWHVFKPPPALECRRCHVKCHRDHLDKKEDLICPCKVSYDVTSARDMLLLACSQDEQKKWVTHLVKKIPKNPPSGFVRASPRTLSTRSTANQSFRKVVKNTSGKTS

[23] = biological target: Tyrosine-protein kinase Fyn (Homo sapiens, UniProt P06241); format: functional
[24] = biological target: Cyclin-dependent kinase 1 (Homo sapiens, UniProt P06493); format: functional;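 note: Kinome-wide panel profiling, with the target listed as panel member CDC2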
[25] = biological target: Serine/threonine-protein kinase PLK1 (Homo sapiens, UniProt P53350); format: functional;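 note: PLK1 measured as one member of a kinome-wide profiling panel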
[26] = biological target: Cyclin-dependent kinase 9 (Homo sapiens, UniProt P50750); format: functional;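 note: value from the CDK9 entry of a kinome-spanning kinase panel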
[27] = biological target: cAMP-dependent protein kinase catalytic subunit alpha (Homo sapiens, UniProt P17612); format: functional
[28] = biological target: Mitogen-activated protein kinase kinase kinase kinase 4 (Homo sapiens, UniProt O95819); format: functional
[29] = biological target: Mitogen-activated protein kinase 14 (Homo sapiens, UniProt Q16539); format: functional;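 note: part of a kinome-wide panel, MAPK14 entry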
Caspase-7 = biological target: T3, Caspase-7 (Homo sapiens, UniProt P55210); experiment: activation of caspase-7 zymogen – biochemical, absorbance, counter-screen for procaspase-3 activator project, dose response (AID 489013)
T3 sequence (P55210 whole entry): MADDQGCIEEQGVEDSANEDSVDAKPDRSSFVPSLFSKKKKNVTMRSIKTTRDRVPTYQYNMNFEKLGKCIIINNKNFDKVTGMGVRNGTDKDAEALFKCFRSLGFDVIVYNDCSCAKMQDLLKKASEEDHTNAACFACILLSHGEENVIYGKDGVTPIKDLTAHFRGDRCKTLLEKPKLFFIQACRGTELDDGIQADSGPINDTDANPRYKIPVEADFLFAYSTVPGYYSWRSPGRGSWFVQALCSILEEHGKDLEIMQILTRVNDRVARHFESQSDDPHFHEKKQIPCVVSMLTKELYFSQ

## CC(C)N(C(=O)Nc1ccc2nsnc2c1)C(C)C
Caspase-6
  AC50: 5.6 µM (active)

## NS(=O)(=O)c1ccc(NC2=CC(=O)C(=O)c3ccccc32)cc1
SUMO-activating enzyme [1]
  IC50: 2.11 µM (active)
SUMO-activating enzyme [2]
  IC50: 9.54 µM (active)
[3]
  IC50: > 67 µM (not active)

## Clc1cc(-c2c[nH]c3ncccc23)nc(NC2CCCCC2)n1
[4]
  Ki: > 2 µM (inactive)
[5]
  Ki: > 2 µM (inactive)
[6]
  Ki: 0.501 µM (active)
[7]
  Ki: > 2.51 µM (inactive)
[8]
  Ki: 0.501 µM (active)
Activin receptor type-1
  Ki: > 3.98 µM (inactive)
SRSF protein kinase 1
  Ki: 0.794 µM (active)
Aurora kinase A
  Ki: > 1.58 µM (inactive)
[9]
  Ki: > 7.94 µM (inactive)
[10]
  Ki: > 1.26 µM (inactive)
[11]
  Ki: 1.58 µM (active)
[12]
  Ki: 1.26 µM (active)
[13]
  Ki: > 7.94 µM (inactive)
[14]
  Ki: 1.26 µM (active)
[15]
  Ki: > 2 µM (inactive)
[16]
  Ki: > 2 µM (inactive)
[17]
  Ki: > 1.58 µM (inactive)
Ephrin type-A receptor 2
  Ki: > 3.16 µM (inactive)
[18]
  Ki: 0.398 µM (active)
Misshapen-like kinase 1
  Ki: 0.00794 µM (active)
[19]
  Ki: 0.501 µM (active)
[20]
  Ki: > 2.51 µM (inactive)
Aurora kinase B
  Ki: > 6.31 µM (inactive)
[21]
  Ki: 0.158 µM (active)
[22]
  Ki: 0.0158 µM (active)
[23]
  Ki: > 0.794 µM (inactive)
[24]
  Ki: 0.0316 µM (active)
[25]
  Ki: 0.501 µM (active)
[26]
  Ki: > 0.794 µM (inactive)
[27]
  Ki: 0.251 µM (active)
[28]
  Ki: 0.126 µM (active)
[29]
  Ki: > 3.98 µM (inactive)

## O=C(N/N=C/c1ccc(O)cc1O)c1ccc(CN2C(=O)c3cccc4cccc2c34)cc1
Caspase-7
  EC50: > 85.3 µM (inactive)

Reference: ChEMBL document CHEMBL1201862, “PubChem BioAssay data set” (2004)
